In patent US20140314882A1, “Synergistic Combination Therapy” (President and Fellows of Harvard College, priority 2009, published 2014):

System: S. cerevisiae cells (strain BY4741)
Test: concentration matrix drug synergy test on S. cerevisiae growth (OD595 growth curves)

Row | Compound | effect on yeast growth
1 | C/C1=C/C(=O)O[C@@H]2C[C@@H](CC[C@H](C)/C=C\CC1)O[C@@](O)([C@@H]1CSC(=O)N1)C2 [latrunculin B] | only mildly reduced yeast growth
2 | C=CC[C@@H]1/C=C(\C)C[C@H](C)C[C@H](OC)[C@H]2O[C@@](O)(C(=O)C(=O)N3CCCC[C@H]3C(=O)O[C@H](/C(C)=C/[C@@H]3CC[C@@H](O)[C@H](OC)C3)[C@H](C)[C@@H](O)CC1=O)[C@H](C)C[C@@H]2OC [tacrolimus] | only mildly reduced yeast growth
